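Cells were grown in 96-well plates and exposed to each compound for 48 hours at five concentrations; endpoints were interpolated linearly between bracketing concentrations, or set to the highest concentration if not reached. Definition used: TGI = concentration required for complete inhibition of growth.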
Columns and labels:
Assay in all cases: DTP human tumour cell line panel, 48 h
786-0 renal = tested on: 786-0 renal
A498 renal = tested on: A498 renal
A549 NSCLC = tested on: A549 NSCLC
ACHN renal = tested on: ACHN renal
CAKI-1 renal = tested on: CAKI-1 renal
CCRF-CEM leukemia = tested on: CCRF-CEM leukemia
COLO 205 colon = tested on: COLO 205 colon
DLD-1 colon = tested on: DLD-1 colon
DMS 114 small cell lung = tested on: DMS 114 small cell lung
DMS 273 small cell lung = tested on: DMS 273 small cell lung
EKVX NSCLC = tested on: EKVX NSCLC
HCC-2998 colon = tested on: HCC-2998 colon
HCT-116 colon = tested on: HCT-116 colon
HCT-15 colon = tested on: HCT-15 colon
HL-60(TB) leukemia = tested on: HL-60(TB) leukemia
HOP-18 NSCLC = tested on: HOP-18 NSCLC
HOP-62 NSCLC = tested on: HOP-62 NSCLC
HOP-92 NSCLC = tested on: HOP-92 NSCLC
HT29 colon = tested on: HT29 colon
IGROV1 ovarian = tested on: IGROV1 ovarian
K-562 leukemia = tested on: K-562 leukemia
KM12 colon = tested on: KM12 colon
KM20L2 colon = tested on: KM20L2 colon
LOX IMVI melanoma = tested on: LOX IMVI melanoma
LXFL 529 NSCLC = tested on: LXFL 529 NSCLC
M14 melanoma = tested on: M14 melanoma
M19-MEL melanoma = tested on: M19-MEL melanoma
MALME-3M melanoma = tested on: MALME-3M melanoma
MOLT-4 leukemia = tested on: MOLT-4 leukemia
NCI-H226 lung = tested on: NCI-H226 lung
NCI-H23 lung = tested on: NCI-H23 lung
NCI-H460 lung = tested on: NCI-H460 lung
NCI-H522 lung = tested on: NCI-H522 lung
OVCAR-3 ovarian = tested on: OVCAR-3 ovarian
OVCAR-4 ovarian = tested on: OVCAR-4 ovarian
OVCAR-5 ovarian = tested on: OVCAR-5 ovarian
OVCAR-8 ovarian = tested on: OVCAR-8 ovarian
RXF 393 renal = tested on: RXF 393 renal
SF-268 CNS = tested on: SF-268 CNS
SF-295 CNS = tested on: SF-295 CNS
SF-539 CNS = tested on: SF-539 CNS
SK-MEL-2 melanoma = tested on: SK-MEL-2 melanoma
SK-MEL-28 melanoma = tested on: SK-MEL-28 melanoma
SK-MEL-5 melanoma = tested on: SK-MEL-5 melanoma
SK-OV-3 ovarian = tested on: SK-OV-3 ovarian
SN12C renal = tested on: SN12C renal
SNB-19 CNS = tested on: SNB-19 CNS
SNB-75 CNS = tested on: SNB-75 CNS
SNB-78 CNS = tested on: SNB-78 CNS
SR leukemia = tested on: SR leukemia
SW-620 colon = tested on: SW-620 colon
TK-10 renal = tested on: TK-10 renal
U251 CNS = tested on: U251 CNS
UACC-257 melanoma = tested on: UACC-257 melanoma
UACC-62 melanoma = tested on: UACC-62 melanoma
UO-31 renal = tested on: UO-31 renal

## Cc1nc(Nc2ccc(Cl)cc2)sc1C(=O)NNC(=O)C(=O)NN
786-0 renal
  TGI: 32 µM
A498 renal
  TGI: 29.5 µM
A549 NSCLC
  TGI: 37.9 µM
ACHN renal
  TGI: 49.4 µM
CAKI-1 renal
  TGI: 49.3 µM
CCRF-CEM leukemia
  TGI: 52.8 µM
COLO 205 colon
  TGI: 35.8 µM
DLD-1 colon
  TGI: 32.9 µM
DMS 114 small cell lung
  TGI: 40.7 µM
DMS 273 small cell lung
  TGI: 33.9 µM
EKVX NSCLC
  TGI: 30.6 µM
HCC-2998 colon
  TGI: 35.5 µM
HCT-116 colon
  TGI: 33.9 µM
HCT-15 colon
  TGI: 31.6 µM
HL-60(TB) leukemia
  TGI: 41 µM
HOP-18 NSCLC
  TGI: 37.1 µM
HOP-62 NSCLC
  TGI: 35.9 µM
HOP-92 NSCLC
  TGI: 36.4 µM
HT29 colon
  TGI: 31.2 µM
IGROV1 ovarian
  TGI: 33.7 µM
K-562 leukemia
  TGI: 51.4 µM
KM12 colon
  TGI: 36 µM
KM20L2 colon
  TGI: 30 µM
LOX IMVI melanoma
  TGI: 32.3 µM
LXFL 529 NSCLC
  TGI: 33.6 µM
M14 melanoma
  TGI: 34 µM
M19-MEL melanoma
  TGI: 35.6 µM
MALME-3M melanoma
  TGI: 38.8 µM
MOLT-4 leukemia
  TGI: 42.5 µM
NCI-H226 lung
  TGI: 36.6 µM
NCI-H23 lung
  TGI: 31.8 µM
NCI-H460 lung
  TGI: 34.7 µM
NCI-H522 lung
  TGI: 32 µM
OVCAR-3 ovarian
  TGI: 38.1 µM
OVCAR-4 ovarian
  TGI: 34.3 µM
OVCAR-5 ovarian
  TGI: 34.5 µM
OVCAR-8 ovarian
  TGI: > 100 µM
RXF 393 renal
  TGI: 43.4 µM
SF-268 CNS
  TGI: 66.5 µM
SF-295 CNS
  TGI: 34 µM
SF-539 CNS
  TGI: 41 µM
SK-MEL-2 melanoma
  TGI: 32.6 µM
SK-MEL-28 melanoma
  TGI: 47.3 µM
SK-MEL-5 melanoma
  TGI: 32.7 µM
SK-OV-3 ovarian
  TGI: 40.5 µM
SN12C renal
  TGI: 30.5 µM
SNB-19 CNS
  TGI: 46.3 µM
SNB-75 CNS
  TGI: 48.6 µM
SNB-78 CNS
  TGI: 64 µM
SR leukemia
  TGI: 54.8 µM
SW-620 colon
  TGI: 32.6 µM
TK-10 renal
  TGI: 91.7 µM
U251 CNS
  TGI: 33.2 µM
UACC-257 melanoma
  TGI: 52.5 µM
UACC-62 melanoma
  TGI: 28.6 µM
UO-31 renal
  TGI: 31.5 µM

— PubChem BioAssay (NCI)
